Reference: ChEMBL document CHEMBL5233258, “Recent developments of gallic acid derivatives and their hybrids in medicinal chemistry: A review” (Eur J Med Chem, 2020)

Tests used:
Micrococcus luteus [1] = test: Antibacterial activity against Micrococcus luteus ATCC 4698 assessed as inhibition of bacterial growth incubated for 48 hrs by broth macrodilution method; format: functional
[2] = target: T1, Seed linoleate 13S-lipoxygenase-1 (Glycine max, UniProt P08170); test: Inhibition of soybean LOX-1
T1 sequence (P08170 whole entry): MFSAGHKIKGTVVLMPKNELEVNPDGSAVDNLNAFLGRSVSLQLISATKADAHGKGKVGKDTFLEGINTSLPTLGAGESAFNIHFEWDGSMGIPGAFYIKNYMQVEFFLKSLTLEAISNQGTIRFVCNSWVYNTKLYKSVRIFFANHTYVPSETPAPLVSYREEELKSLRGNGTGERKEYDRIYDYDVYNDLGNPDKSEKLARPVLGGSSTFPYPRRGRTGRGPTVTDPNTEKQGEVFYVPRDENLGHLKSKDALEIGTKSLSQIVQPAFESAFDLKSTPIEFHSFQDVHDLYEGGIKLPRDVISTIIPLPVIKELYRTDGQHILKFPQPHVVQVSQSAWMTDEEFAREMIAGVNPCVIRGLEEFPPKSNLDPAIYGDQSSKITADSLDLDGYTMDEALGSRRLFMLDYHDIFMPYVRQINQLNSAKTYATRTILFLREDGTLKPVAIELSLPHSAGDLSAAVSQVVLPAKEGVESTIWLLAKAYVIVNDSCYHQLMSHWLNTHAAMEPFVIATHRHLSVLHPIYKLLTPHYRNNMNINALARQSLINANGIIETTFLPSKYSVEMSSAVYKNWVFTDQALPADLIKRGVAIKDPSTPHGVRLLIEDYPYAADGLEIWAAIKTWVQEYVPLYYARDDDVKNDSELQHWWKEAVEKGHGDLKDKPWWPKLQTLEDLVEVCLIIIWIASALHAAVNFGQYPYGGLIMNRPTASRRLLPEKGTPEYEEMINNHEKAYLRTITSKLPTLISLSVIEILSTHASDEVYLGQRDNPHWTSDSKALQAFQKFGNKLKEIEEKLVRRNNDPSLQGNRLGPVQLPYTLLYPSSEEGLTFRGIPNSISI

Micrococcus luteus [3] = test: Bactericidal activity against Micrococcus luteus ATCC 4698 assessed as inhibition of bacterial growth incubated for 48 hrs by broth macrodilution method; format: functional
Bacillus subtilis [4] = test: Antibacterial activity against Bacillus subtilis ATCC 9372 assessed as inhibition of bacterial growth incubated for 48 hrs by broth macrodilution method; format: functional
[5] = tested on: Corynebacterium ammoniagenes; test: Bactericidal activity against Brevibacterium ammoniagenes ATCC 6872 assessed as inhibition of bacterial growth incubated for 48 hrs by broth macrodilution method; format: functional
Bacillus subtilis [6] = test: Bactericidal activity against Bacillus subtilis ATCC 9372 assessed as inhibition of bacterial growth incubated for 48 hrs by broth macrodilution method; format: functional
[7] = tested on: Corynebacterium ammoniagenes; test: Antibacterial activity against Brevibacterium ammoniagenes ATCC 6872 assessed as inhibition of bacterial growth incubated for 48 hrs by broth macrodilution method; format: functional
Staphylococcus aureus [8] = test: Antibacterial activity against Staphylococcus aureus ATCC 12598 assessed as inhibition of bacterial growth incubated for 48 hrs by broth macrodilution method; format: functional
Staphylococcus aureus [9] = test: Bactericidal activity against Staphylococcus aureus ATCC 12598 assessed as inhibition of bacterial growth incubated for 48 hrs by broth macrodilution method; format: functional
[10] = Antioxidant activity in ethanol; format: functional

MIC (Micrococcus luteus [1]) [µg/mL]	IC50 [2] [nM]	MIC (Bacillus subtilis [4]) [µg/mL]	MIC [7] [µg/mL]	MIC (Staphylococcus aureus [8]) [µg/mL]	SMILES	MBC (Micrococcus luteus [3]) [µg/mL]	MBC [5] [µg/mL]	MBC (Bacillus subtilis [6]) [µg/mL]	MBC (Staphylococcus aureus [9]) [µg/mL]	IC50 [10] [ppm]
> 200	1100	> 200	> 200	> 200	CCCCCCCCCCCCOC(=O)c1cc(O)c(O)c(O)c1 [DODECYL GALLATE]	> 200	> 200	> 200	> 200	–
–	–	–	–	–	CCCCCCCCOC(=O)c1cc(O)c(O)c(O)c1 [OCTYL_GALLATE]	–	–	–	–	19
